Assays:
VERPE [1] = assay: Pre-emergence herbicidal action against VERPE; assay type: in vivo, Veronica persica; settings: Veronica persica, 504 h
Summary of the method: (§1)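 Pre-emergence soil-surface spray of formulated compound (WP or EC; 600 to 800 l/ha; 0.2% wetting agent) over seeds sown in sandy loam. After 3 weeks under greenhouse conditions, damage is estimated visually in percent against untreated plants.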

DIGSA [2] = assay: Post-emergence herbicidal action against DIGSA; assay type: in vivo, Digitaria sanguinalis; settings: Digitaria sanguinalis, 504 h
Summary of the method: (§2)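 Spray, one-leaf stage: WP or EC compound in water, 600–800 l/ha, 0.2% wetting agent. Plants held about 3 weeks in the greenhouse, then visually rated in percent of kill compared with untreated controls.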

VIOTR [3] = assay: Pre-emergence herbicidal action against VIOTR; assay type: in vivo, Viola tricolor; settings: Viola tricolor, 504 h
Summary of the method: as §1

ECHCG [4] = assay: Post-emergence herbicidal action against ECHCG; assay type: in vivo, Echinochloa crus-galli; settings: Echinochloa crus-galli, 504 h, dosage 20 g/ha
Summary of the method: as §2

PHBPU [5] = assay: Pre-emergence herbicidal action against PHBPU; assay type: in vivo, Pharbitis purpurea; settings: Ipomoea purpurea, 504 h, dosage 80 g/ha
Summary of the method: as §1

HORMU [6] = assay: Post-emergence herbicidal action against HORMU; assay type: in vivo, Hordeum murinum; settings: Hordeum murinum, 504 h, dosage 20 g/ha
Summary of the method: as §2

AVEFA [7] = assay: Post-emergence herbicidal action against AVEFA; assay type: in vivo, Avena fatua; settings: Avena fatua, 504 h, 20 g/ha, visual assessment about 3 weeks after treatment, 100% = plants have died, 0% = like control plants
Summary of the method: as §2

STEME [8] = assay: Pre-emergence herbicidal action against STEME; assay type: in vivo, Stellaria media; settings: Stellaria media, 504 h
Summary of the method: as §1

AVEFA [9] = assay: Pre-emergence herbicidal action against AVEFA; assay type: in vivo, Avena fatua; settings: Avena fatua, 504 h; 80 g/ha, pre-emergence
Summary of the method: as §1

STEME [10] = assay: Post-emergence herbicidal action against STEME; assay type: in vivo, Stellaria media; settings: Stellaria media, 504 h
Summary of the method: as §2

AMARE [11] = assay: Post-emergence herbicidal action against AMARE; assay type: in vivo, Amaranthus retroflexus; settings: Amaranthus retroflexus, 504 h, 20 g/ha, visual assessment about 3 weeks after treatment, 100% = plants have died, 0% = like control plants
Summary of the method: as §2

MATIN [12] = assay: Pre-emergence herbicidal action against MATIN; assay type: in vivo, Matricaria inodora; settings: Tripleurospermum inodorum, 504 h
Summary of the method: as §1

PHBPU [13] = assay: Post-emergence herbicidal action against PHBPU; assay type: in vivo, Pharbitis purpurea; settings: Ipomoea purpurea, 504 h, dosage 20 g/ha
Summary of the method: as §2

DIGSA [14] = assay: Pre-emergence herbicidal action against DIGSA; assay type: in vivo, Digitaria sanguinalis; settings: Digitaria sanguinalis, 504 h
Summary of the method: as §1

POLCO = assay: Post-emergence herbicidal action against POLCO; assay type: in vivo, Polygonum convolvulus; settings: Fallopia convolvulus, 504 h, dosage 20 g/ha
Summary of the method: as §2

AMARE [15] = assay: Pre-emergence herbicidal action against AMARE; assay type: in vivo, Amaranthus retroflexus; settings: Amaranthus retroflexus, 504 h, scored visually after 3 weeks vs untreated controls, 100% = plants have died, 0% = like control plants
Summary of the method: as §1

VIOTR [16] = assay: Post-emergence herbicidal action against VIOTR; assay type: in vivo, Viola tricolor; settings: Viola tricolor, 504 h
Summary of the method: as §2

ABUTH [17] = assay: Post-emergence herbicidal action against ABUTH; assay type: in vivo, Abutilon theophrasti; settings: Abutilon theophrasti, 504 h, visual assessment about 3 weeks after treatment vs untreated controls
Summary of the method: as §2

MATIN [18] = assay: Post-emergence herbicidal action against MATIN; assay type: in vivo, Matricaria inodora; settings: Tripleurospermum inodorum, 504 h
Summary of the method: as §2

ECHCG [19] = assay: Pre-emergence herbicidal action against ECHCG; assay type: in vivo, Echinochloa crus-galli; settings: Echinochloa crus-galli, 504 h, 80 g/ha
Summary of the method: as §1

ABUTH [20] = assay: Pre-emergence herbicidal action against ABUTH; assay type: in vivo, Abutilon theophrasti; settings: Abutilon theophrasti, 504 h
Summary of the method: as §1

VERPE [21] = assay: Post-emergence herbicidal action against VERPE; assay type: in vivo, Veronica persica; settings: Veronica persica, 504 h, 20 g/ha
Summary of the method: as §2

SETVI [22] = assay: Pre-emergence herbicidal action against SETVI; assay type: in vivo, Setaria viridis; settings: Setaria viridis, 504 h
Summary of the method: as §1

ALOMY [23] = assay: Post-emergence herbicidal action against ALOMY; assay type: in vivo, Alopecurus myosuroides; settings: Alopecurus myosuroides, 504 h, dosage 20 g/ha, visual assessment about 3 weeks after treatment vs untreated controls
Summary of the method: as §2

HORMU [24] = assay: Pre-emergence herbicidal action against HORMU; assay type: in vivo, Hordeum murinum; settings: Hordeum murinum, 504 h; 80 g/ha, pre-emergence
Summary of the method: as §1

LOLRI = assay: Pre-emergence herbicidal action against LOLRI; assay type: in vivo, Lolium rigidum; settings: Lolium rigidum, 504 h, 80 g/ha
Summary of the method: as §1

SETVI [25] = assay: Post-emergence herbicidal action against SETVI; assay type: in vivo, Setaria viridis; settings: Setaria viridis, 504 h
Summary of the method: as §2

ALOMY [26] = assay: Pre-emergence herbicidal action against ALOMY; assay type: in vivo, Alopecurus myosuroides; settings: Alopecurus myosuroides, 504 h; 80 g/ha, pre-emergence, scored visually after 3 weeks vs untreated controls (100% = plants have died, 0% = like control plants)
Summary of the method: as §1

Cc1c(C(=O)Nc2nnnn2C)ccc(C(F)(F)F)c1C(=O)NC1CC1 [Example 1-27]
pest or weed control at 20 g/ha (VERPE [1]; dosage 20 g/ha): 80%
pest or weed control at 80 g/ha (VERPE [1]; dosage 80 g/ha): 90%
pest or weed control at 5 g/ha (DIGSA [2]; 5 g/ha): 90%
pest or weed control at 20 g/ha (DIGSA [2]; 20 g/ha): 100%
pest or weed control at 20 g/ha (VIOTR [3]; dosage 20 g/ha): 100%
pest or weed control at 80 g/ha (VIOTR [3]; dosage 80 g/ha): 100%
pest or weed control at 20 g/ha (ECHCG [4]): 80%
pest or weed control at 80 g/ha (PHBPU [5]): 100%
pest or weed control at 20 g/ha (HORMU [6]): 80%
pest or weed control at 20 g/ha (AVEFA [7]): 100%
pest or weed control at 20 g/ha (STEME [8]; dosage 20 g/ha): 90%
pest or weed control at 80 g/ha (STEME [8]; dosage 80 g/ha): 100%
pest or weed control at 80 g/ha (AVEFA [9]): 100%
pest or weed control at 20 g/ha (STEME [10]; 20 g/ha): 100%
pest or weed control at 5 g/ha (STEME [10]; dosage 5 g/ha): 100%
pest or weed control at 20 g/ha (AMARE [11]): 100%
pest or weed control at 20 g/ha (MATIN [12]; dosage 20 g/ha): 100%
pest or weed control at 80 g/ha (MATIN [12]; dosage 80 g/ha): 100%
pest or weed control at 20 g/ha (PHBPU [13]): 90%
pest or weed control at 20 g/ha (DIGSA [14]; dosage 20 g/ha): 100%
pest or weed control at 80 g/ha (DIGSA [14]; dosage 80 g/ha): 100%
pest or weed control at 20 g/ha (POLCO): 90%
pest or weed control at 20 g/ha (AMARE [15]; 20 g/ha): 100%
pest or weed control at 80 g/ha (AMARE [15]; 80 g/ha): 100%
pest or weed control at 5 g/ha (VIOTR [16]; 5 g/ha): 100%
pest or weed control at 20 g/ha (VIOTR [16]; 20 g/ha): 100%
pest or weed control at 5 g/ha (ABUTH [17]; dosage 5 g/ha): 100%
pest or weed control at 20 g/ha (ABUTH [17]; dosage 20 g/ha): 100%
pest or weed control at 5 g/ha (MATIN [18]; dosage 5 g/ha): 80%
pest or weed control at 20 g/ha (MATIN [18]; dosage 20 g/ha): 100%
pest or weed control at 80 g/ha (ECHCG [19]): 100%
pest or weed control at 80 g/ha (ABUTH [20]; 80 g/ha, scored visually after 3 weeks vs untreated controls (100% = plants have died, 0% = like control plants)): 100%
pest or weed control at 20 g/ha (ABUTH [20]; dosage 20 g/ha, scored visually after 3 weeks vs untreated controls, 100% = plants have died, 0% = like control plants, read-out: Pre-emergence action against ABUTH (herbicidal activity in percent)): 100%
pest or weed control at 20 g/ha (VERPE [21]): 100%
pest or weed control at 20 g/ha (SETVI [22]; dosage 20 g/ha): 100%
pest or weed control at 80 g/ha (SETVI [22]; dosage 80 g/ha): 100%
pest or weed control at 20 g/ha (ALOMY [23]): 100%
pest or weed control at 80 g/ha (HORMU [24]): 80%
pest or weed control at 80 g/ha (LOLRI): 80%
pest or weed control at 5 g/ha (SETVI [25]; dosage 5 g/ha): 100%
pest or weed control at 20 g/ha (SETVI [25]; dosage 20 g/ha): 100%
pest or weed control at 80 g/ha (ALOMY [26]): 90%

From patent US12655116B2, “Substituted isophthalic acid diamides” (Bayer Aktiengesellschaft, priority 2020, dated 2026)
